Values quoted from earlier work as cited in patent US4196122A, “Analgesic polypeptide” (American Home Products Corporation, priority 1977, dated 1980).

How the values were obtained:
[1] = system: opiate receptor; details: brain homogenates
[2] = system: rats; details: injection in the brain ventricle in rats; fully reversible by naloxone

Substance | inhibition of stereospecific receptor binding of 3H-naloxone [1] | analgesia [2]
H-Tyr-Gly-Gly-Phe-Leu-OH [leucine-enkephalin] | inhibit the stereospecific receptor binding | induce a profound analgesia
H-Tyr-Gly-Gly-Phe-Met-OH [methionine-enkephalin] | inhibit the stereospecific receptor binding | induce a profound analgesia
